Bounds are passed on as bounds.

Test [1] can be described thus: Affinity of paramagnetic complex towards substrate by PRE method. Type of test: binding. The source says: (§1) Since the relaxivity of the two paramagnetic species involved in the equilibrium, that bound to the substrate molecule and that unbound, are different, the well-established Proton Relaxation Enhancement (PRE) method (Aime S, Fasano M, Terreno E, Botta M in The Chemistry of Contrast Agents in Medical Magnetic Resonance Imaging, Merbach A E, Tóth E (eds), Wiley & Sons: Chichester, 2001, 203-209) may be conveniently used for estimating the affinity of the paramagnetic complex towards the substrate molecule.
(§2) The KA values obtained for the adducts disclosed in the following are measured according to this PRE method.

The nature of test [2]: Affinity of paramagnetic complex towards substrate by Proton Relaxation Enhancement (PRE) method. It counts as binding. To be noted: Lactate; pH 7 and 25° C.
Description: as §1, §2
By adding lactate to an aqueous solution of GdDO3A the following equilibrium takes place: GdDO3A(H2O)2+Lactate ? GdDO3A(Lactate)+2H2O
Since the relaxivity of the two Gd(III) species involved in the equilibrium are different (higher for GdDO3A(H2O)2), the well-consolidated Proton Relaxation Enhancement (PRE) method (Aime S, Fasano M, Terreno E, Botta M in The Chemistry of Contrast Agents in Medical Magnetic Resonance Imaging, Merbach A E, Tóth E (eds), Wiley & Sons: Chichester, 2001, 203-209) may be conveniently used for estimating the affinity of the GdDO3A complex towards Lactate.

For the compound “10-[(3-carboxyphenyl)methyl]-1,4,7,10-tetraazaciclododecane-1,4,7-triacetic acid gadolinium complex [Gd-3]”, the KA in test [1] (aspartate, 298 K and pH 7) was 120 M⁻¹; in test [1] (oxalate, 298K and pH 7) it was over 50000 M⁻¹.

Regarding `O=C([O-])CN1CCNCCN(CC(=O)[O-])CCN(CC(=O)[O-])CC1.[Gd+3]` [GdDO3A], the KA in test [1] (citrate, pH 7 and 25° C.) worked out at 40 M⁻¹; in test [2] it was 150 M⁻¹. In test [1] (inorganic phosphate, pH 7.4 and 25° C.), this compound registered a binding strength of 50 M⁻¹.

(Values after patent US7608249B2, “Enhanced substrate imaging by reversible binding to a paramagnetic complex” (Bracco Imaging S.p.A., priority 2001, dated 2009).)
